Results taken from patent US6676950B2, “Neurokinin receptor antagonists and methods of use thereof for inhibiting HIV infection” (The Children's Hospital of Philadelphia, priority 2001, dated 2004).

Columns and labels:
[1] = system: luciferase-encoding HIV virions pseudotyped with MLV Env (CCR5-independent); assay: Pseudotype reporter virus entry assay, MLV Env; assay type: cell-based
Description: Pseudotype reporter virus entry assay: Recombinant luciferase-encoding HIV virions pseudotyped with Env from the M-tropic ADA (CCR5-dependent) and amphitropic murine leukemia virus (MLV) (CCR5-independent) were used to study HIV infection of MDM incubated with or without CP-96,345 or R-113281. The Env-deleted luciferase reporter plasmid PNL-Luc-E-R+ (kindly provided by N. Landau) was cotransfected into 293T cells along with plasmids encoding the ADA or MLV Env genes as previously described (31). Supernatants were collected 48 h later, assayed for p24^Gag antigen content, and frozen at −80° C. MDM (2.5×10^5 cells/well, in 48-well plates) were incubated overnight with or without CP-96,345 or R-113281 and then infected using 20 ng of p24^Gag antigen equivalent of each pseudotype HIV per well, in the presence of polybrene (7.5 μg/ml). At 72 h postinfection, the cells were lysed in 150 μl of 0.5% Triton-X-100 in PBS. Lysate (50 μl) was mixed with an equal volume of luciferase substrate (Promega, […].) and luciferase activity was determined in a microtiter plate luminometer (Dynex Technologies, Chantilly, Va.). The results were expressed as relative light units (RLU) in CP-96,345-treated or R-113281-treated and infected MDM as a percentage of that in untreated and infected MDM.

[2] = system: CCR5 mRNA; assay: CCR5 mRNA expression in MDM by RT-PCR / real-time RT-PCR; assay type: cell-based, human; details: for relative CCR5 mRNA level (real-time RT-PCR): 4 hours
Description: Total RNA was isolated from human peripheral blood MDM (10^6 cells) using Tri-Reagent (Molecular Research Center, Cincinnati, Ohio) as we previously reported (16).
Reverse transcription: Total RNA (1 μg) was reverse transcribed using Reverse Transcription System (Promega, Madison, Wis.) with the specific primers (antisense) for HIV gag (5′-[…]-[…]-3′; SEQ ID NO: 1) (27) or CCR5 (5′-[…]-3′; SEQ ID NO: 2) (32) for 1 h at 42° C. RT reactions was terminated by incubating the reaction mixture at 99° C. for 5 min and then kept at 4° C. The resulting cDNA was used as a template for PCR amplification or real time PCR quantification.
Polymerase chain reaction (PCR) analysis: PCR amplification of CCR5 and HIV gag cDNA was performed with one tenth of the cDNA for 35 cycles (CCR5) (32) or 40 cycles (gag) (27) using AmpliTaq Gold (Perkin ElmerCetus, Foster City, Calif.) in a GeneAmp PCR System 2400 (Perkin Elmer-Cetus). β-Actin was used as a control to monitor the amount and integrity of RNA in each sample (Clontech, Palo Alto, Calif.). Real time PCR was performed with one tenth of cDNA using ABI Prism 7700 Sequence Detection System (Perkin Elmer). The reaction mixture contained 0.25 mM of dNTPs, AmpliTaq Gold (1.5 U), 5 mM of MgCl2, 50 pmole of each of the two primers (SK38: 5′-[…]-3′(SEQ ID NO: 3); SK39: 5′-[…]-3′; SEQ ID NO: 4), 20 pmole of the molecular beacon probe (SK19: 5′[…]-3′; SEQ ID NO: 5) labeled with FAM (a fluorophore) at its 5′ end and DABCYL (a quencher) at the 3′end. The cycle conditions were 95° C. 10 min followed by 40 cycles of 95° C. 15 sec and 60° C. 1 min. The known amounts of HIV DNA isolated from ACH-2 cells were used as standard controls. All standards and samples were run in duplicates. HIV gag, CCR5, β-Actin primer pairs and the probe (SK19) were synthesized by Integrated DNA Technologies, Inc. (Coralville, Ind.).

[3] = system: HIV LTR promoter; assay: HIV LTR-driven CAT activity assay in U38 cells; assay type: cell-based
Text: ACH-2 and U38 cell lines (25, 26) were obtained from the NIH AIDS Reagent Program. DNA extracted from ACH-2 cells was used as a positive standard for HIV DNA PCR as previously reported (27). The U38 cell line contains stably integrated, silent copies of the HIV LTR (long terminal repeat) promoter linked to a CAT (chloramphenicol acetyltransferase) gene and was used to study the effect of SP and/or CP-96,345 and R-113281 on the activation of HIV LTR promoter.
Chloramphenicol acetyltransferase (CAT) activity assay: U38 cells (2×10^6 cells) were incubated with different concentrations of SP and/or CP-96,345 or R-113281 for 48 h. Untreated U38 cells were used as a background control. Cellular proteins were extracted using 1X Reporter Lysis Bufffer (Promega Corp., Madison, Wis.). The lysates were incubated with a mixture containing 0.15 μCi of ^14C-labeled chloramphenicol (DuPont Inc., Boston, Mass.) and 200 μg/ml of n-Butyryl CoA (Promega Corp., Madison, Wis.) in a total volume of 125 μl at 37° C. for 3 h. The acetylated forms of chloramphenicol were extracted with xylene (Aldrich Chemical Company, Milwaukee, Wis.). CAT activity of each sample was quantified using a liquid-scintillation counter (Packard Instrument Company, Downers Grove, Ill.). The results were expressed as the ratio of CAT activity (CPM) of the SP and/or CP-96,345-treated or R-113281-treated U38 to that of the background control.

| SMILES | MLV-Env pseudotyped HIV infection of MDM (luciferase activity) ([1]; R-113281 10^−7 and 10^−6 overnight pretreatment) | relative CCR5 mRNA level (real-time RT-PCR) ([2]; R-113281 10^−8 M to 10^−6 M) | effect on SP activation of HIV LTR-driven CAT activity ([3]; SP (10^−8M) plus R-113281 (10^−6M), 48 hours) | MLV Env-pseudotyped HIV infection of MDM (luciferase activity) ([1]; CP-96,345 10^−8 and 10^−7 M overnight pretreatment) | CCR5 mRNA in MDM (RT-PCR) ([2]; 10^−8 to 10^−6M, 3 h) | relative CCR5 mRNA level (real-time RT-PCR) ([2]; CP-96,345 10^−7 M to 10^−6 M) | effect on SP activation of HIV LTR-driven CAT activity ([3]; SP 10^−8M plus CP-96,345 10^−6M, 48 h) |
| --- | --- | --- | --- | --- | --- | --- | --- |
| COc1cc(C(=O)N2CCO[C@](CCN3CCC4(CC3)c3ccccc3C[S@+]4[O-])(c3ccc(Cl)c(Cl)c3)C2)cc(OC)c1OC.Cl [R-113281] | failed to block | significantly down-regulated | abrogated | – | – | – | – |
| COc1ccccc1CN[C@H]1C2CCN(CC2)[C@H]1C(c1ccccc1)c1ccccc1 [CP-96,345, [2S,3S)-cis-2-(diphenylmethyl)-N-[(2-methoxyphenyl)-methyl]-1-azabicyclo [[2.2.2]-octan-3-amine]] | – | – | – | failed to block | down-regulated | significantly down-regulated | abrogated |
